What is called CC50 is the concentration that lowers cell viability or growth by half.

What all share (type): cell-based
Series [1] deals with HIV-1-GFP. Briefly: microbe, parasite or virus in culture. How it is done: H9 and Jurkat cells (6 × 10^5 cells/mL) were treated with increasing concentrations of nucleoside analogues (0–200 μM; except CFB, 0–1.6 μM) and incubated for 4 h at 37 °C in 5% CO2. Cells were then infected with HIV-1-GFP by spinoculation at 800 × g for 90 min in the presence of 1 μg/mL polybrene, and further incubated at 37 °C in 5% CO2 for 72 h. Undifferentiated U937 and THP-1 (PMA^−) cells (6 × 10^5 cells/mL) were treated with increasing concentrations of nucleoside analogues (0–200 μM; except CFB, 0–1.6 μM) and incubated at 37 °C in 5% CO2 for 48 h. Cells were then infected with HIV-1-GFP by spinoculation at 800 × g for 90 min in the presence of 1 μg/mL polybrene, and further incubated at 37 °C in 5% CO2 for 72 h. Non-dividing U937 and THP-1 (PMA^+) cells (6 × 10^5 cells/mL) were differentiated by addition of 100 nM PMA (PMA^+) for 48 h and treated with increasing concentrations of nucleoside analogues as described above. Cells were then infected with HIV-1-GFP in the presence of 1 μg/mL polybrene and further incubated at 37 °C in 5% CO2 for 72 h. The percentage of GFP^+cells was determined by one-colour flow cytometry using a Fortessa X20 analyser (BD Biosciences) and the data analysed using the FlowJo software suite.
(§1) Non-ambiguous values were subjected to a replicate test to calculate confidence intervals of 95% (95% CI). CC50 and EC50 values were determined for at least two independent experiments for each nucleoside analogue and a selectivity index (SI) also calculated, (SI = CC50/EC50). EC50 values for each replicate were used to perform an unpaired two-tailed t-test to determine significant differences between U937 cells expressing SAMHD1 wt or HD206-7AA mutant and THP-1 cells expressing Vpx or untransduced cells. P values of <0.005 were considered statistically significant.

In series [2] the test system is HIV-1-GFP. In words: Anti-HIV-1 activity in U937 cells transduced with wt SAMHD1 or HD206-7AA mutant. The procedure: (§2) Antiviral assays were further performed in monocytoid cells transduced with YFP-expressing VLPs containing WT SAMHD1, HD206-7AA or Vpx. Briefly, U937 cells (6 × 10^5 cells/mL) were transduced with WT SAMHD1-YFP or HD206-7AA-YFP VLPs by spinoculation at 800 × g for 90 min in the presence of 1 μg/mL polybrene. Similarly, THP-1 cells (6 × 10^5 cells/mL) were transduced with Vpx-YFP VLPs by spinoculation at 800 × g for 90 min in the presence of 1 μg/mL polybrene. Cells were incubated at 37 °C in 5% CO2 and after 72 h, PMA^+ cells (6 × 10^5 cells/mL) were treated with 100 nM PMA and PMA^− cells (7.5 × 10^4 cells/mL) were left untreated. Cells were then incubated at 37 °C in 5% CO2 for 48 h. Nucleoside analogues were added at increasing concentrations (0–200 μM; except CFB, 0–1.6 μM) and cells were further incubated for 48 h. PMA^− cells were then infected with HIV-1-GFP by spinoculation at 800 × g for 90 min in the presence of 1 μg/mL polybrene, PMA^+ cells were infected with HIV-1-GFP in the presence of 1 μg/mL polybrene only. Cells were incubated for 72 h at 37 °C in 5% CO2 and then analysed by two-colour flow cytometry using a Fortessa X20 analyser (BD Biosciences). Data were analysed using the FlowJo software suite.
as §1, with “The cytotoxic concentration of nucleoside analogue that inhibits cell viability by 50% (CC50) and the effective concentration of nucleoside analogue that inhibits infection of cells by 50% (EC50) were calculated for each independent experiment by non-linear regression using GraphPad Prism v6.00 for Windows (GraphPad Software, San Diego, CA). Non-ambiguous” for “Non-ambiguous”

The subject of series [3] is HIV-1-GFP. In words: Anti-HIV-1 activity in THP-1 cells with or without Vpx transduction. The procedure:
as §2
as §1, with “The cytotoxic concentration of nucleoside analogue that inhibits cell viability by 50% (CC50) and the effective concentration of nucleoside analogue that inhibits infection of cells by 50% (EC50) were calculated for each independent experiment by non-linear regression using GraphPad Prism v6.00 for Windows (GraphPad Software, San Diego, CA). Non-ambiguous” for “Non-ambiguous”

The nature of series [4]: Cytotoxicity, live cells by flow cytometry, H9 cells. Conditions: human. How it is done:
(§3) H9, Jurkat and undifferentiated U937 and THP-1 (PMA^−) cells (6 × 10^5 cells/mL) were treated with increasing concentrations of nucleoside analogues (0–200 μM; except CFB, 0–1.6 μM) and incubated at 37 °C in 5% CO2 for 48 h. Medium was then replaced and cells were further incubated for 72 h. Non-dividing U937 and THP-1 (PMA^+) cells (6 × 10^5 cells/mL) were differentiated by addition of 100 nM phorbol-12-myristate-13-acetate (PMA^+) for 48 h and then treated with increasing concentrations of nucleoside analogues as described above. The percentage of live cells was determined by flow cytometry using Live/Dead fixable blue-fluorescent dyes (Invitrogen) and a Fortessa X20 analyser (BD Biosciences). Data were analysed using the FlowJo software suite.
as §1, with “The cytotoxic concentration of nucleoside analogue that inhibits cell viability by 50% (CC50) and the effective concentration of nucleoside analogue that inhibits infection of cells by 50% (EC50) were calculated for each independent experiment by non-linear regression using GraphPad Prism v6.00 for Windows (GraphPad Software, San Diego, CA). Non-ambiguous” for “Non-ambiguous”

A short description of series [5]: Cytotoxicity, live cells by flow cytometry, Jurkat cells. Conditions: human. The procedure:
as §3
as §1, with “The cytotoxic concentration of nucleoside analogue that inhibits cell viability by 50% (CC50) and the effective concentration of nucleoside analogue that inhibits infection of cells by 50% (EC50) were calculated for each independent experiment by non-linear regression using GraphPad Prism v6.00 for Windows (GraphPad Software, San Diego, CA). Non-ambiguous” for “Non-ambiguous”
A general note: In flow cytometry, cells or beads pass a laser one at a time.

The nature of series [6]: Cytotoxicity, live cells by flow cytometry, U937 cells (PMA−/PMA+). Conditions: human, CC50. The procedure: as §3
as §1, with “The cytotoxic concentration of nucleoside analogue that inhibits cell viability by 50% (CC50) and the effective concentration of nucleoside analogue that inhibits infection of cells by 50% (EC50) were calculated for each independent experiment by non-linear regression using GraphPad Prism v6.00 for Windows (GraphPad Software, San Diego, CA). Non-ambiguous” for “Non-ambiguous”

The test system of another series is U937 cells. The description is as above. The note with it: human, 48 h. How it is done: as §3
as §1, with “The cytotoxic concentration of nucleoside analogue that inhibits cell viability by 50% (CC50) and the effective concentration of nucleoside analogue that inhibits infection of cells by 50% (EC50) were calculated for each independent experiment by non-linear regression using GraphPad Prism v6.00 for Windows (GraphPad Software, San Diego, CA). Non-ambiguous” for “Non-ambiguous”

Series [7] is described as follows: Cytotoxicity, live cells by flow cytometry, THP-1 cells (PMA−/PMA+). Conditions: human, CC50. The procedure:
as §3
as §1, with “The cytotoxic concentration of nucleoside analogue that inhibits cell viability by 50% (CC50) and the effective concentration of nucleoside analogue that inhibits infection of cells by 50% (EC50) were calculated for each independent experiment by non-linear regression using GraphPad Prism v6.00 for Windows (GraphPad Software, San Diego, CA). Non-ambiguous” for “Non-ambiguous”

In another series the test system is THP-1 cells. The description is as above. Conditions: human, 48 h. How it is done:
as §3
as §1, with “The cytotoxic concentration of nucleoside analogue that inhibits cell viability by 50% (CC50) and the effective concentration of nucleoside analogue that inhibits infection of cells by 50% (EC50) were calculated for each independent experiment by non-linear regression using GraphPad Prism v6.00 for Windows (GraphPad Software, San Diego, CA). Non-ambiguous” for “Non-ambiguous”

A further series is described as follows: in vitro. Conditions: human. The procedure:
as §3
as §1, with “The cytotoxic concentration of nucleoside analogue that inhibits cell viability by 50% (CC50) and the effective concentration of nucleoside analogue that inhibits infection of cells by 50% (EC50) were calculated for each independent experiment by non-linear regression using GraphPad Prism v6.00 for Windows (GraphPad Software, San Diego, CA). Non-ambiguous” for “Non-ambiguous”

For `O=c1[nH]cnc2c1ncn2[C@H]1CC[C@@H](CO)O1` [ddI, 2′,3′-dideoxyinosine], the EC50 in the series on HIV-1-GFP [1] (Human immunodeficiency virus 1, THP-1, read-out: EC50 [95% CI], THP1 PMA+) stood at 0.093 µM; in the series on HIV-1-GFP [1] (Human immunodeficiency virus 1, THP-1, read-out: EC50 [95% CI], THP1 PMA−), 2.03 µM; with HIV-1-GFP [1] (Human immunodeficiency virus 1, U-937, read-out: EC50 [95% CI], U937 PMA+), 2.45 µM; in the series with HIV-1-GFP [1] (Human immunodeficiency virus 1, U-937, read-out: EC50 [95% CI], U937 PMA−), 45.8 µM; with HIV-1-GFP [2] (Human immunodeficiency virus 1, U-937, read-out: EC50 [95% CI], U937 PMA+, HD206/7AA+ population), 8.79 µM; in the series on HIV-1-GFP [2] (Human immunodeficiency virus 1, U-937, read-out: EC50 [95% CI], U937 PMA+, SAMHD1+ population), 0.109 µM. Further, the EC50 came out at 55.1 µM with HIV-1-GFP [2] (Human immunodeficiency virus 1, U-937, read-out: EC50 [95% CI], U937 PMA−, HD206/7AA+ population); 23.7 µM in the series with HIV-1-GFP [2] (Human immunodeficiency virus 1, U-937, read-out: EC50 [95% CI], U937 PMA−, SAMHD1+ population); 4.34 µM with HIV-1-GFP [3] (Human immunodeficiency virus 1, THP-1, read-out: EC50 [95% CI], THP1 PMA+, Vpx+); 0.079 µM with HIV-1-GFP [3] (Human immunodeficiency virus 1, THP-1, read-out: EC50 [95% CI], THP1 PMA+, Vpx−); 2.73 µM with HIV-1-GFP [3] (Human immunodeficiency virus 1, THP-1, read-out: EC50 [95% CI], THP1 PMA−, Vpx+); 1.04 µM in the series on HIV-1-GFP [3] (Human immunodeficiency virus 1, THP-1, read-out: EC50 [95% CI], THP1 PMA−, Vpx−). Besides, the CC50 at 48 h (in series [4]; in series [5]; in series [6]; in [7]; in the series “in vitro”) was greater than 200 µM each time. For the same compound, the CC50 in the series with U937 cells and with THP-1 cells was greater than 200 µM throughout.

Source of the values: PMC5318888, “SAMHD1 enhances nucleoside-analogue efficacy against HIV-1 in myeloid cells” (Scientific Reports, 2017).
